According to US10428082B2, “Triazole derivatives of melampomagnolide B and methods of use thereof” (BioVentures, LLC, priority 2016, dated 2019):
Like-named read-outs stand apart in the source and are kept apart here.

Legend:
M9 ENL1 cell line = assay: Anti-leukemic activity, Annexin V/7-AAD flow cytometry; assay type: cell-based
Experimental: (§1) The newly synthesized triazole derivatives of melampomagnolide B were screened for anti-leukemic activity against M9 ENL1 and primary AML cell lines; the latter were obtained with informed consent from human patients. Evaluations were performed after 24 h of drug exposure using flow cytometric analysis by labeling with Annexin V and 7-aminoactinomycin D (7-AAD) to delineate apoptotic cell populations. In all experiments PTL was included as a reference control.

[1] = system: primary AML cell line AML1; assay: as above; assay type: cell-based, human; details: 24 h of drug exposure, read-out: AML#1 (EC50)
Experimental: as §1

[2] = system: primary AML cell line AML2; assay: as above; assay type: cell-based, human; details: 24 h of drug exposure, read-out: AML#2 (EC50)
Experimental: as §1

Water solubility = assay type: physicochemical; details: fumarate salt vs free base
[3] = 24 h of drug exposure, read-out: M9ENL1 (EC50)
[4] = M9-ENL1, 24 h, 24 h of drug exposure, read-out: M9ENL1 (EC50)

Row | Structure (SMILES) | EC50 (M9 ENL1 cell line; [3]) [nM] | EC50 ([1]; Homo sapiens, AML1, 24 h) [µM] | EC50 (M9 ENL1 cell line; [4]) [nM] | other results
1 | C=C1C(=O)O[C@H]2[C@H]1CC/C(Cn1cc(COC(=O)c3ccccc3)nn1)=C\CC[C@@]1(C)O[C@@H]21 [JVM 3-76] | 11000 |  |  | 
2 | C=C1C(=O)O[C@H]2[C@H]1CC/C(Cn1cc(-c3ccc(F)c(C)c3)nn1)=C\CC[C@@]1(C)O[C@@H]21 [JVM 4-27, (1aR,7aS,10aS,10bS,E)-5-((4-(4-Fluoro-3-methylphenyl)-1H-1,2,3-triazol-1-yl)methyl)-1a-methyl-8-methylene-2,3,6,7,7a,8,10a,10b-octahydrooxireno[2′,3′:9,10]cyclodeca[1,2-b]furan-9(1aH)-one] |  | 1.3 | 1200 | EC50 ([2]; Homo sapiens, 24 h): 1.2 µM
3 | C=C1C(=O)O[C@H]2[C@H]1CC/C(Cn1cc(CCCC)nn1)=C\CC[C@@]1(C)O[C@@H]21 [JVM 4-20] | 4300 |  |  | 
4 | CN(C)CC1C(=O)O[C@H]2[C@H]1CC/C(Cn1cc(-c3cc(C(F)(F)F)cc(C(F)(F)F)c3)nn1)=C\CC[C@@]1(C)O[C@@H]21 (stereo partly drawn) [JVM 4-29B] |  | 1.1 | 1900 | EC50 ([2]; Homo sapiens, 24 h): 2.3 µM
5 | C/C1=C\CC[C@@]2(C)O[C@@H]2[C@H]2OC(=O)[C@H](CN(C)C)[C@@H]2CC1 [DMAPT, reference compound] | 6000 |  |  | EC50 [1]: 14.7 µM; EC50 [2]: 11.3 µM
6 | C=C1C(=O)O[C@H]2[C@H]1CC/C(Cn1cc(CO)nn1)=C\CC[C@@]1(C)O[C@@H]21 [JVM 3-75] | 38000 |  |  | 
7 | CN(C)CC1C(=O)O[C@H]2[C@H]1CC/C(Cn1cc(-c3cc(C(F)(F)F)cc(C(F)(F)F)c3)nn1)=C\CC[C@@]1(C)O[C@@H]21 (stereo partly drawn) [JVM 4-29C] | 1700 |  |  | water solubility compared with free base form (Water solubility): more water soluble than the free base form; EC50 [1]: 1 µM; EC50 [2]: 2.9 µM

The next lines start with results.

Row | EC50 (M9 ENL1 cell line; [3]) [nM] | EC50 ([1]; Homo sapiens, AML1, 24 h) [µM] | EC50 (M9 ENL1 cell line; [4]) [nM] | Structure (SMILES) | other results
8 |  | 2.4 | 1500 | C=C1C(=O)O[C@H]2[C@H]1CC/C(Cn1cc(-c3cc(F)cc(F)c3)nn1)=C\CC[C@@]1(C)O[C@@H]21 [JVM 4-48, (1aR,7aS,10aS,10bS,E)-5-((4-(3,5-Difluorophenyl)-1H-1,2,3-triazol-1-yl)methyl)-1a-methyl-8-methylene-2,3,6,7,7a,8,10a,10b-oetahydrooxireno[2′,3′:9,10]cyclodeca[1,2-b]furan-9(1aH)-one] | 
9 |  | 7.9 | 3200 | C=C1C(=O)O[C@H]2[C@H]1CC/C(Cn1cc(-c3ccccn3)nn1)=C\CC[C@@]1(C)O[C@@H]21 [JVM 4-47, (1aR,7aS,10aS,10bS,E)-1a-Methyl-8-methylene-5-((4-(pyridin-2-yl)-1H-1,2,3-triazol-1-yl)methyl)-2,3,6,7,7a,8,10a,10b-octahydrooxireno[2′,3′:9,10]cyclodeca[1,2-b]furan-9(1aH)-one] | 
10 | 16000 |  |  | C=C1C(=O)O[C@@H]2[C@H]3O[C@]3(C)CC/C=C(\CO)CC[C@@H]12 [MMB, Melampomagnolide B] | EC50 [1]: 20.5 µM; EC50 [2]: 24.3 µM
11 | 3800 |  |  | C=C1C(=O)O[C@H]2[C@H]1CC/C(Cn1cc(CCCCl)nn1)=C\CC[C@@]1(C)O[C@@H]21 [JVM 4-31] | 
12 |  |  | 200 | C#Cc1cccc(-c2cn(C/C3=C/CC[C@@]4(C)O[C@H]4[C@H]4OC(=O)C(=C)[C@@H]4CC3)nn2)c1 [JVM 4-41, (1aR,7aS,10aS,10bS,E)-5-((4-(3-Ethynylphenyl)-1H-1,2,3-triazol-1-yl)methyl)-1a-methyl-8-methylene-2,3,6,7,7a,8,10a,10b-octahydrooxireno[2′,3′:9,10]cyclodeca[1,2-b]furan-9(1aH)-one] | EC50 (M9 ENL1 cell line; M9-ENL1, text value in nM, read-out: EC50 against the M9 ENL cell line): 200 nM; fold more potent than parthenolide (PTL) (M9 ENL1 cell line; M9 ENL1 cells): 26 fold
